Assay results published in PubChem BioAssay AID1845212 (Molecular Pharmacology Branch, DTP, NCI, 2023).

System: NCI-H719 tumor spheroids, viability
Assay: Anticancer human tumor NCI-H719 cell line growth inhibition;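 also: spheroids exposed to compounds for seven days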;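 as to viability, T/C: percent viability relative to DMSO vehicle control as 100%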
Conditions: spheroids with HUVEC and MSC; for IC50: curve of first compound; for viability, T/C: stronger effect = lower value
In short: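 Complex tumor spheroids combined malignant cells with endothelial cells and mesenchymal stem cells. DNA-damaging drugs and DNA repair inhibitors were tested alone and in combination, at half-log dilutions down from clinical Cmax (top 10 microM if Cmax unknown), 0.25% DMSO final.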

[1] = second compound 30 pM, first compound 0.0316 µM
[2] = second compound 30 pM, first compound 0.1 µM
[3] = second compound 30 pM, first compound 0.316 µM
[4] = second compound 30 pM, first compound 1 µM
[5] = second compound 30 pM, first compound 3.16 µM
[6] = second compound 30 pM, first compound 10 µM
[7] = second compound 94.9 pM, first compound 0.0316 µM
[8] = second compound 94.9 pM, first compound 0.1 µM
[9] = second compound 94.9 pM, first compound 0.316 µM
[10] = second compound 94.9 pM, first compound 1 µM
[11] = second compound 94.9 pM, first compound 3.16 µM
[12] = second compound 94.9 pM, first compound 10 µM
[13] = second compound 0.0003 µM, first compound 0.0316 µM
[14] = second compound 0.0003 µM, first compound 0.1 µM
[15] = second compound 0.0003 µM, first compound 0.316 µM
[16] = second compound 0.0003 µM, first compound 1 µM
[17] = second compound 0.0003 µM, first compound 3.16 µM
[18] = second compound 0.0003 µM, first compound 10 µM
[19] = second compound 0.000949 µM, first compound 0.0316 µM
[20] = second compound 0.000949 µM, first compound 0.1 µM
[21] = second compound 0.000949 µM, first compound 0.316 µM
[22] = second compound 0.000949 µM, first compound 1 µM
[23] = second compound 0.000949 µM, first compound 3.16 µM
[24] = second compound 0.000949 µM, first compound 10 µM
[25] = second compound 0.003 µM, first compound 0.0316 µM
[26] = second compound 0.003 µM, first compound 0.1 µM
[27] = second compound 0.003 µM, first compound 0.316 µM
[28] = second compound 0.003 µM, first compound 1 µM
[29] = second compound 0.003 µM, first compound 3.16 µM
[30] = second compound 0.003 µM, first compound 10 µM

| SMILES | IC50 (second compound 30 pM) | IC50 (second compound 94.9 pM) | IC50 (second compound 0.0003 µM) | IC50 (second compound 0.000949 µM) | IC50 (second compound 0.003 µM) | viability, T/C [1] | viability, T/C [2] | viability, T/C [3] | viability, T/C [4] | viability, T/C [5] | viability, T/C [6] | viability, T/C [7] | viability, T/C [8] | viability, T/C [9] | viability, T/C [10] | viability, T/C [11] | viability, T/C [12] | viability, T/C [13] | viability, T/C [14] | viability, T/C [15] | further results |
| --- | --- | --- | --- | --- | --- | --- | --- | --- | --- | --- | --- | --- | --- | --- | --- | --- | --- | --- | --- | --- | --- |
| CC(C)n1c(=O)n(C)c2cnc3cc(F)c(-c4ccc(OCCCN5CCCCC5)nc4)cc3c21 + COc1cc2c(cc1O)CCNC21CSC2c3c(OC(C)=O)c(C)c4c(c3C(COC1=O)N1C(O)C3Cc5cc(C)c(OC)c(O)c5C(C21)N3C)OCO4 | > 10000 nM | < 31.6 nM | < 31.6 nM | < 31.6 nM | < 31.6 nM | 90.9% | 86.2% | 85.7% | 71.2% | 74.3% | 98.8% | 40.8% | 60.5% | 45.5% | 47.9% | 36.5% | 43.7% | 30.1% | 5.76% | 27.8% | viability, T/C [16]: 8.34%; viability, T/C [17]: 8.82%; viability, T/C [18]: 5.34%; viability, T/C [19]: 6.42%; viability, T/C [20]: 7.84%; viability, T/C [21]: 6.99%; viability, T/C [22]: 6.68%; viability, T/C [23]: 5.62%; viability, T/C [24]: 4.34%; viability, T/C [25]: 0.61%; viability, T/C [26]: 1.06%; viability, T/C [27]: 0.76%; viability, T/C [28]: 0.52%; viability, T/C [29]: 0.99%; viability, T/C [30]: 0.68% |
| CC1COCCN1c1cc(-c2ccnn2C)c2ccnc(-c3ccn[nH]3)c2n1 (stereo not given) + COc1cc2c(cc1O)CCNC21CSC2c3c(OC(C)=O)c(C)c4c(c3C(COC1=O)N1C(O)C3Cc5cc(C)c(OC)c(O)c5C(C21)N3C)OCO4 | < 31.6 nM | < 31.6 nM | < 31.6 nM | < 31.6 nM | < 31.6 nM | 29% | 19.2% | 16.2% | 9.83% | 8.37% | 11% | 13.6% | 7.91% | 7.75% | 7.08% | 6.07% | 10.4% | 7.42% | 7.97% | 6.18% | viability, T/C [16]: 5.64%; viability, T/C [17]: 6.36%; viability, T/C [18]: 9.31%; viability, T/C [19]: 7.59%; viability, T/C [20]: 7.35%; viability, T/C [21]: 6.11%; viability, T/C [22]: 3.98%; viability, T/C [23]: 3.9%; viability, T/C [24]: 3.4%; viability, T/C [25]: 0.28%; viability, T/C [26]: 0.46%; viability, T/C [27]: 0.86%; viability, T/C [28]: 1.82%; viability, T/C [29]: 0.25%; viability, T/C [30]: 0.52% |
| COc1cc(C)[nH]c(=O)c1CN1CCc2c(Cl)cc(C(OC)C3COC3)c(Cl)c2C1=O (stereo not given) + COc1cc2c(cc1O)CCNC21CSC2c3c(OC(C)=O)c(C)c4c(c3C(COC1=O)N1C(O)C3Cc5cc(C)c(OC)c(O)c5C(C21)N3C)OCO4 | > 10000 nM | < 31.6 nM | < 31.6 nM | < 31.6 nM | < 31.6 nM | 91.6% | 85% | 88.3% | 95.7% | 90.9% | 82.9% | 39.9% | 42.6% | 43.9% | 31.1% | 32.4% | 50.6% | 13.2% | 6.14% | 8.15% | viability, T/C [16]: 5.96%; viability, T/C [17]: 6.6%; viability, T/C [18]: 7.13%; viability, T/C [19]: 6.97%; viability, T/C [20]: 6.88%; viability, T/C [21]: 8.11%; viability, T/C [22]: 6.65%; viability, T/C [23]: 6.56%; viability, T/C [24]: 6.23%; viability, T/C [25]: 0.23%; viability, T/C [26]: 0.35%; viability, T/C [27]: 0.34%; viability, T/C [28]: 0.86%; viability, T/C [29]: 0.34%; viability, T/C [30]: 0.93% |
| COc1ccc([C@@H](O)c2cc(-c3ncnc4cc(N5CCOCC5)ccc34)c(F)cc2Cl)nn1 + COc1cc2c(cc1O)CCNC21CSC2c3c(OC(C)=O)c(C)c4c(c3C(COC1=O)N1C(O)C3Cc5cc(C)c(OC)c(O)c5C(C21)N3C)OCO4 | 1110 nM | < 31.6 nM | < 31.6 nM | < 31.6 nM | < 31.6 nM | 81.5% | 100% | 75.2% | 52.4% | 22% | 3.59% | 49.7% | 25.2% | 44% | 27.7% | 8.27% | 3% | 13.6% | 8.22% | 10.1% | viability, T/C [16]: 6.05%; viability, T/C [17]: 3.35%; viability, T/C [18]: 1.11%; viability, T/C [19]: 8.53%; viability, T/C [20]: 8.3%; viability, T/C [21]: 7.46%; viability, T/C [22]: 4.41%; viability, T/C [23]: 1.46%; viability, T/C [24]: 0.7%; viability, T/C [25]: 0.57%; viability, T/C [26]: 0.58%; viability, T/C [27]: 0.46%; viability, T/C [28]: 0.68%; viability, T/C [29]: 0.54%; viability, T/C [30]: 0.45% |
